Assay results reported in ChEMBL document CHEMBL1201862, “PubChem BioAssay data set” (2004).
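In this assay, cells in 96-well plates receive the compound at five concentrations for 48 hours. Endpoints are linearly interpolated between the surrounding concentrations. Here, GI50 denotes the concentration required for 50% inhibition of growth.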 Calls of active or inactive are those of the source. No stated cut-off is given here; in the data, active = GI50 up to about 1.1 µM and inactive = higher.

How the values were obtained:
Test in all cases: NCI-60 cell line screen, 48 h
MOLT-4 = system: MOLT-4
A549 = system: A549
UACC-257 = system: UACC-257
U-251 = system: U-251
786-0 = system: 786-0
DU-145 = system: DU-145
OVCAR-3 = system: OVCAR-3
NCI-H522 = system: NCI-H522
SNB-75 = system: SNB-75
SF-268 = system: SF-268
SK-MEL-2 = system: SK-MEL-2
LOX IMVI = system: LOX IMVI
HOP-92 = system: HOP-92
OVCAR-4 = system: OVCAR-4
SK-MEL-5 = system: SK-MEL-5
UO-31 = system: UO-31
Malme-3M = system: Malme-3M
SN12C = system: SN12C
NCI-H23 = system: NCI-H23

Row | Compound | GI50 (MOLT-4) | GI50 (A549) | GI50 (UACC-257) | GI50 (U-251) | GI50 (786-0) | GI50 (DU-145) | GI50 (OVCAR-3) | GI50 (NCI-H522) | GI50 (SNB-75) | GI50 (SF-268) | GI50 (SK-MEL-2) | GI50 (LOX IMVI) | GI50 (HOP-92) | GI50 (OVCAR-4) | GI50 (SK-MEL-5) | GI50 (UO-31) | GI50 (Malme-3M) | GI50 (SN12C) | GI50 (NCI-H23)
1 | COC[C@@H](/N=C/C(C)(C)C)C(C)C | > 100 µM (inactive) | > 100 µM (inactive) | 67.3 µM (inactive) | > 100 µM (inactive) | > 100 µM (inactive) | > 100 µM (inactive) | > 100 µM (inactive) | > 100 µM (inactive) | > 100 µM (inactive) | > 100 µM (inactive) | > 100 µM (inactive) | > 100 µM (inactive) | > 100 µM (inactive) | > 100 µM (inactive) | > 100 µM (inactive) | > 100 µM (inactive) | > 100 µM (inactive) | > 100 µM (inactive) | > 100 µM (inactive)
2 | CCOC(=O)/C1=C(\C)N(Cc2ccccc2)C(=O)c2ccccc2C(=O)c2c(O)ccc(O)c21 | > 100 µM (inactive) | > 100 µM (inactive) | > 100 µM (inactive) | > 100 µM (inactive) | > 100 µM (inactive) | > 100 µM (inactive) | > 100 µM (inactive) | 24.1 µM (inactive) | > 100 µM (inactive) | > 100 µM (inactive) | > 100 µM (inactive) | > 100 µM (inactive) | 48.4 µM (inactive) | > 100 µM (inactive) | > 100 µM (inactive) | > 100 µM (inactive) | > 100 µM (inactive) | > 100 µM (inactive) | > 100 µM (inactive)
3 | COc1cccc(Nc2nc(NNC(=O)Cc3ccccc3)nc(NNC(=O)c3ccncc3)n2)c1 | 78.7 µM (inactive) | > 10 µM (inactive) | > 10 µM (inactive) | > 10 µM (inactive) | > 10 µM (inactive) | > 10 µM (inactive) | > 100 µM (inactive) | > 100 µM (inactive) | 53.5 µM (inactive) | > 10 µM (inactive) | > 100 µM (inactive) | 13.4 µM (inactive) | > 10 µM (inactive) | > 10 µM (inactive) | > 10 µM (inactive) | 6.32 µM (inactive) | > 10 µM (inactive) | > 10 µM (inactive) | > 10 µM (inactive)
4 | CCN(CC)CCOCCOCC1(c2ccc(Cl)c(Cl)c2)CCCCC1 | 4.99 µM (inactive) | 10.9 µM (inactive) | 2.88 µM (inactive) | 9.25 µM (inactive) | 3.28 µM (inactive) | 8.71 µM (inactive) | 8.67 µM (inactive) | 7.91 µM (inactive) | 7.64 µM (inactive) | 11.8 µM (inactive) | 14.9 µM (inactive) | 7.08 µM (inactive) | 6.14 µM (inactive) | 12.6 µM (inactive) | 2.19 µM (inactive) | 5.12 µM (inactive) | 5.33 µM (inactive) | 11.9 µM (inactive) | 11 µM (inactive)
5 | O=S(=O)(N1CCCCN(S(=O)(=O)C(F)(F)F)CCCN(S(=O)(=O)C(F)(F)F)CCCN(S(=O)(=O)C(F)(F)F)CCCCN(S(=O)(=O)C(F)(F)F)CCCN(S(=O)(=O)C(F)(F)F)CCC1)C(F)(F)F | > 100 µM (inactive) | > 100 µM (inactive) | 49.3 µM (inactive) | 21.6 µM (inactive) | 18.2 µM (inactive) | > 100 µM (inactive) | 38.4 µM (inactive) | 35.2 µM (inactive) | 37.9 µM (inactive) | 31.1 µM (inactive) | 76.4 µM (inactive) | 80.5 µM (inactive) | 31 µM (inactive) | > 100 µM (inactive) | 35 µM (inactive) | > 100 µM (inactive) | 23.2 µM (inactive) | 35.8 µM (inactive) | 56.5 µM (inactive)
6 | CO/N=C/c1c(-c2ccc(Cl)cc2)c(/C=N/OC)n2c1sc1ccccc12 | 45.5 µM (inactive) | > 100 µM (inactive) | > 100 µM (inactive) | > 100 µM (inactive) | > 100 µM (inactive) | > 100 µM (inactive) | > 100 µM (inactive) | > 100 µM (inactive) | > 100 µM (inactive) | > 100 µM (inactive) | > 100 µM (inactive) | > 100 µM (inactive) | 8.49 µM (inactive) | 83 µM (inactive) | > 100 µM (inactive) | > 100 µM (inactive) | > 100 µM (inactive) | > 100 µM (inactive) | > 100 µM (inactive)
7 | O=S(=O)(O)c1c(Cl)c(Cl)c(O)c2ncccc12 | 3.33 µM (inactive) | 12.4 µM (inactive) | 14.9 µM (inactive) | 10.8 µM (inactive) | 8.02 µM (inactive) | 16.6 µM (inactive) | 10.7 µM (inactive) | 4.12 µM (inactive) | 14.3 µM (inactive) | 3.79 µM (inactive) | 12.5 µM (inactive) | 2.19 µM (inactive) | 18.8 µM (inactive) | 8.99 µM (inactive) | 9.68 µM (inactive) | 7.08 µM (inactive) | 10.4 µM (inactive) | 14 µM (inactive) | 11.2 µM (inactive)
8 | CCOC(=O)c1cc2cc(N(C(C)=O)C(C)=O)ccc2s1 | 18.6 µM (inactive) | 36.1 µM (inactive) | 40 µM (inactive) | 20.7 µM (inactive) | 27.2 µM (inactive) | 23.7 µM (inactive) | 30.8 µM (inactive) | 16.8 µM (inactive) | 10.1 µM (inactive) | 23.2 µM (inactive) | 22.5 µM (inactive) | 33.5 µM (inactive) | 27.1 µM (inactive) | 31.3 µM (inactive) | 20.7 µM (inactive) | 27.7 µM (inactive) | 16.6 µM (inactive) | 19.7 µM (inactive) | 45.3 µM (inactive)
9 | O=C(CC(=O)c1ccncc1)c1ccccc1 | 38.1 µM (inactive) | > 100 µM (inactive) | > 85.7 µM (inactive) | 49.7 µM (inactive) | 66.4 µM (inactive) | > 100 µM (inactive) | > 85.3 µM (inactive) | 67.3 µM (inactive) | > 63.8 µM (inactive) | 63.5 µM (inactive) | > 81.1 µM (inactive) | 31.8 µM (inactive) | > 87.1 µM (inactive) | > 100 µM (inactive) | 90.4 µM (inactive) | > 74.5 µM (inactive) | 40.3 µM (inactive) | 42.2 µM (inactive) | 80.7 µM (inactive)
10 | COc1cc2c(cc1OC)C13CCN4C=C5CCOC6CC(=O)N2C1C6C5CC43 (stereo not given) | > 100 µM (inactive) | > 100 µM (inactive) | > 100 µM (inactive) | > 100 µM (inactive) | > 100 µM (inactive) | > 100 µM (inactive) | > 100 µM (inactive) | > 100 µM (inactive) | > 100 µM (inactive) | > 100 µM (inactive) | > 100 µM (inactive) | > 100 µM (inactive) | > 100 µM (inactive) | > 100 µM (inactive) | > 100 µM (inactive) | > 100 µM (inactive) | > 100 µM (inactive) | > 100 µM (inactive) | > 100 µM (inactive)
11 | CC(C)(C)COC(=O)C(C)(C)NC(=O)C(CC(=O)OCc1ccccc1)NC(=O)OCc1ccccc1 (stereo not given) | 17.6 µM (inactive) | 29.7 µM (inactive) | 25.5 µM (inactive) | 31.5 µM (inactive) | > 100 µM (inactive) | 62.2 µM (inactive) | 41.4 µM (inactive) | 24 µM (inactive) | 13.9 µM (inactive) | 87.1 µM (inactive) | 49 µM (inactive) | 43.5 µM (inactive) | 53.1 µM (inactive) | 50.5 µM (inactive) | 11.1 µM (inactive) | 24 µM (inactive) | 29.6 µM (inactive) | 25.6 µM (inactive) | 26.7 µM (inactive)
12 | CN(CCCN(C)CCc1ccc(Cl)c(Cl)c1)CCCN1CCCC1 | 0.908 µM (active) | 2.97 µM (inactive) | 1.83 µM (inactive) | 1.92 µM (inactive) | 1.26 µM (inactive) | 8.71 µM (inactive) | 3.72 µM (inactive) | 1.56 µM (inactive) | 2.72 µM (inactive) | 2.12 µM (inactive) | 1.83 µM (inactive) | 1.52 µM (inactive) | 2.13 µM (inactive) | 7.28 µM (inactive) | 2.32 µM (inactive) | 1.23 µM (inactive) | 2.16 µM (inactive) | 3.12 µM (inactive) | 3.31 µM (inactive)
13 | N#CC12CC3=C(N=C1NC1=C(CCc4ccccc41)C2)c1ccccc1CC3 (stereo not given) | 1.72 µM (inactive) | 3.32 µM (inactive) | 17.6 µM (inactive) | 1.58 µM (inactive) | 3.42 µM (inactive) | 3.97 µM (inactive) | 0.538 µM (active) | 1.23 µM (inactive) | 1.64 µM (inactive) | 3.3 µM (inactive) | 4.39 µM (inactive) | 1.42 µM (inactive) | 2.72 µM (inactive) | 7.55 µM (inactive) | 3.74 µM (inactive) | 3.45 µM (inactive) | 1.71 µM (inactive) | 5.15 µM (inactive) | 3.18 µM (inactive)
14 | CNC(=O)N(CCC#N)[C@H]1CCCC[C@@H]1N(C(=O)NC)c1ccccc1 | > 100 µM (inactive) | > 100 µM (inactive) | > 100 µM (inactive) | > 100 µM (inactive) | > 100 µM (inactive) | > 100 µM (inactive) | > 100 µM (inactive) | > 100 µM (inactive) | > 100 µM (inactive) |  | > 100 µM (inactive) | > 100 µM (inactive) | > 100 µM (inactive) | > 100 µM (inactive) | > 100 µM (inactive) | > 100 µM (inactive) | > 100 µM (inactive) | > 100 µM (inactive) | > 100 µM (inactive)
